The structures appear in SMILES notation. Read-outs that look alike come from different tables or passages of the source. A value given as a limit tells only on which side of the number the result lay.

For this assay, the target named is T1, BRD9 (Homo sapiens, UniProt Q9H8M2).
T1 sequence (Q9H8M2 1-597): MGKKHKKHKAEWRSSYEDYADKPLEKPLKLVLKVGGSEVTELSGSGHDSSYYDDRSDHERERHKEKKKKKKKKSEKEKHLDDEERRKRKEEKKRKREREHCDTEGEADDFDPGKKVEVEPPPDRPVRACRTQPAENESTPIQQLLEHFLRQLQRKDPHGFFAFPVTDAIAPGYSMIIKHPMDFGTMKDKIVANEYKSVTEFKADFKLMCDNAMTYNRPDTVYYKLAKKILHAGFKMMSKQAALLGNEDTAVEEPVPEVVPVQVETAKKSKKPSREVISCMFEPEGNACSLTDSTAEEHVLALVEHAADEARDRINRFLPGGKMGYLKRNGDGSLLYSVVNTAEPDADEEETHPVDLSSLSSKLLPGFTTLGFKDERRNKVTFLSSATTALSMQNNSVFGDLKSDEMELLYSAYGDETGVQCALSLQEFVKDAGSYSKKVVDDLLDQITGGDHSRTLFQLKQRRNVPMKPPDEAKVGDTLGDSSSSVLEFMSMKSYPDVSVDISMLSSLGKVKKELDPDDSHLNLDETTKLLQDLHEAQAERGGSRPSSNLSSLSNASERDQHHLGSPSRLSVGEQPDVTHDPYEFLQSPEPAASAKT
As to the kind of experiment: HiBiT BRD9 degradation assay in 293T.166 (BRD9-HiBiT) cells. The class given is cell-based. On the set-up: endogenously expressing BRD9 with HiBiT fusion tag via CRISPR; host or cells: 293T.166 (BRD9-HiBiT), also expressing LgBiT ectopically. The settings on record: 293T.166 cells, 2.0 hours, class symbols, read-out: HiBiT-Degradation 293T.166 BRD9 2.0 hours (DC50). The procedure: Selected compounds were tested in a BRD9 degradation assay using the HiBit Method.
Dulbecco's modified Eagle medium (DMEM) without phenol red and fetal bovine serum (FBS) were purchased from Gibco (Grand Island, N.Y., USA). Nano-Glo® HiBiT Lytic Assay System was purchased from Promega (Madison, Wis., USA). 293T.166 (BRD9-HiBiT) cell line, endogenously expressing BRD9 with HiBiT fusion tag via CRISPR and ectopically expressing LgBiT tag, was purchased from Promega (Madison, Wis., USA). 293T.167 (BRD7-HiBiT) cell line, endogenously expressing BRD7 with HiBiT fusion tag via CRISPR and ectopically expressing LgBiT tag, was purchased from Promega (Madison, Wis., USA). 293T.92 (BRD4-HiBiT) cell line, endogenously expressing BRD4 with HiBiT fusion tag via CRISPR and ectopically expressing LgBiT tag, was generated in-house. Cell culture flasks and 384-well microplates were acquired from VWR (Radnor, Pa., USA).
BRD9 degradation was determined based on quantification of luminescent signal using Nano-Glo® HiBiT Lytic Assay kit. Test compounds were added to the 384-well plate from a top concentration of 10 μM with 11 points, half log titration in duplicates. 293T.166 cells were added into 384-well plates at a cell density of 10,000 cells per well. The plates were kept at 37° C. with 5% CO2 for 2 hours. BRD7 and BRD4 degradation was similarly determined with 293T.167 cells and 293T.92 cells, respectively. The cells treated in the absence of the test compound were the negative control and the cells without Nano-Glo® HiBiT Lytic reagent were the positive control. After 2-hour incubation, Nano-Glo® HiBiT Lytic Assay reagents were added to the cells. Luminescence was acquired on EnVision™ Multilabel Reader (PerkinElmer, Santa Clara, Calif., USA).

The term DC50 denotes the concentration at which degradation of the target reaches its halfway point. Take `Cc1c(-c2ccc(C(=O)N3CCC(C4CCN(c5ccc(NC6CCC(=O)NC6=O)cc5F)CC4)CC3)c(OC(F)(F)F)c2)cn(C)c(=O)c1C` (stereo not shown) [Compound 212, 3-[3-fluoro-4-[4-[1-[2-(trifluoromethoxy)-4-(1,4,5-trimethyl-6-oxo-3-pyridyl)benzoyl]-4-piperidyl]-1-piperidyl]anilino]piperidine-2,6-dione]: the DC50 (Table 1) is less than 100 nM.

Take `COc1cc(-c2cn(C)c(=O)c3[nH]ncc23)cc(F)c1CN1CCC(O)(CC(=O)N2CCC(c3ccc(NC4CCC(=O)NC4=O)cc3F)CC2)CC1` (stereo not shown) [Compound 154]: the 50% degradation concentration (DC50) (Table 1) is less than 100 nM. Consider `COc1cc(-c2cn(C)c(=O)c3[nH]ncc23)cc(OC)c1CNC1CN(CC(=O)N2CCC(c3ccc(NC4CCC(=O)NC4=O)cc3)CC2)C1` (stereo not shown) [Compound 38], for which the 50% degradation concentration (DC50) (Table 1) was in the range of 100 to 500 nM.

Regarding `COc1cc(-c2cn(C)c(=O)c3cnccc23)cc(F)c1C(=O)N1CCC(C2CCN(c3ccc(NC4CCC(=O)NC4=O)cc3F)CC2)CC1` (stereo not shown) [Compound 215], where the note is “Table 1”, the DC50 is less than 100 nM. Turning to `C/C=C/Cn1cc(-c2cc(OC)c(CN3CCC(N4CCN(c5ccc(NC6CCC(=O)NC6=O)cc5F)CC4)C(F)(F)C3)c(OC)c2)c(C)c(C)c1=O` (stereo not shown) [Compound 265, 3-[4-[4-[1-[[4-[1-[(E)-but-2-enyl]-4,5-dimethyl-6-oxo-3-pyridyl]-2,6-dimethoxy-phenyl]methyl]-3,3-difluoro-4-piperidyl]piperazin-1-yl]-3-fluoro-anilino]piperidine-2,6-dione], where the note is “Table 2”, the half-maximal degradation concentration (DC50) was less than 100 nM.

As to `COc1cc(-c2cn(C)c(=O)c3[nH]ncc23)cc(OC)c1CN1CCC2(CC1)CN(C(=O)CN1CCC(c3ccc(NC4CCC(=O)NC4=O)cc3)CC1)C2` (stereo not shown) [Compound 4], where the note is “Table 1”, the DC50 was less than 100 nM. For the molecule `COc1cc(-c2cn(C)c(=O)c3[nH]ncc23)cc(OC)c1CN1C[C@@H]2C[C@H]1CN2C(=O)CN1CCC(c2ccc(NC3CCC(=O)NC3=O)cc2)CC1` (stereo partly shown) [Compound 13], the DC50 (Table 1) is less than 100 nM.

As to `COc1cc(-c2cn(C)c(=O)c3cnccc23)cc(Cl)c1C(=O)N1CCC(N(C)C(=O)N2CCC(c3ccc(NC4CCC(=O)NC4=O)cc3)CC2)CC1` (stereo not shown) [Compound 126, N-[1-[2-chloro-6-methoxy-4-(2-methyl-1-oxo-2,7-naphthyridin-4-yl)benzoyl]-4-piperidyl]-4-[4-[(2,6-dioxo-3-piperidyl)amino]phenyl]-N-methyl-piperidine-1-carboxamide], the half-maximal degradation concentration (DC50) (Table 1) was less than 100 nM. Consider `COc1cc(-c2cn(C)c(=O)c3[nH]ncc23)cc(OC)c1CN1CCN(C(=O)CN2CCC(c3ccc(NC4CCC(=O)NC4=O)cc3)C(F)(F)C2)CC1` (stereo not shown) [Compound 8], for which the DC50 (Table 1) was less than 100 nM.

As to `COc1cc(-c2cn(C)c(=O)c3[nH]ncc23)cc(F)c1CN1CCC(C2CCN(c3ccc(NC4CCC(=O)NC4=O)cc3C(F)(F)F)CC2)CC1` (stereo not shown) [Compound 84], the half-maximal degradation concentration (DC50) (Table 1) is less than 100 nM. The same measure, in the same setting: to `CN(C(=O)N1CCC(c2ccc(NC3CCC(=O)NC3=O)cc2)CC1)C1CCN(C(=O)c2ccc(-c3cn(C)c(=O)c4ccc(F)cc34)cc2OC(F)(F)F)CC1` (stereo not shown) [Compound 128] belongs less than 100 nM; to `COc1cc(-c2cn(C)c(=O)c3ccccc23)cc(OC)c1CN1CCc2c(CN3CCC(c4ccc(NC5CCC(=O)NC5=O)cc4)CC3)cccc2C1` (stereo not shown) [Compound 97], less than 100 nM.

For the molecule `COc1cc(-c2cn(C)c(=O)c3[nH]ncc23)cc(OC)c1CN1CCN(C(=O)CN2CCN(c3ccc(NC4CCC(=O)NC4=O)cc3F)CC2)C(C)(C)C1` (stereo not shown) [Compound 111, 3-[4-[4-[2-[4-[[2,6-dimethoxy-4-(6-methyl-7-oxo-1H-pyrazolo[3,4-c]pyridin-4-yl)phenyl]methyl]-2,2-dimethyl-piperazin-1-yl]-2-oxo-ethyl]piperazin-1-yl]-3-fluoro-anilino]piperidine-2,6-dione], the DC50 (Table 1) was less than 100 nM. On to `COc1cc(-c2cn(C)c(=O)c3[nH]ncc23)cc(Cl)c1CN1CCC(CCC2CCN(c3ccc(NC4CCC(=O)NC4=O)cc3F)CC2)CC1` (stereo not shown) [Compound 148], for which the DC50 (Table 1) was less than 100 nM. For the molecule `COc1cc(-c2cn(C)c(=O)c3cnccc23)cc(OC)c1CN1CCc2c(CN3CCC(c4ccc(NC5CCC(=O)NC5=O)cc4)CC3)cccc2C1` (stereo not shown) [Compound 96], the 50% degradation concentration (DC50) (Table 1) was less than 100 nM. On to `COc1cc(-c2cn(C)c(=O)c3[nH]ncc23)cc(OC)c1CN1CCN(C(=O)CC2CCN(c3ccc(NC4CCC(=O)NC4=O)cc3)CC2)CC1` (stereo not shown) [Compound 50], for which the DC50 (Table 1) was less than 100 nM. The same measure, in the same setting: as for `COc1cc(-c2cn(C)c(=O)c3[nH]ncc23)cc(OC)c1CN1CCN(C(=O)CC2CCN(c3ccc(NC4CCC(=O)NC4=O)cc3C(F)(F)F)CC2)C(C)(C)C1` (stereo not shown) [Compound 57], the figure is less than 100 nM. The same measure, in the same setting: to `COc1cc(-c2cn(C)c(=O)c3[nH]ncc23)cc(OC)c1CN1CCN(C(=O)CN2CCC(c3ccc(NC4CCC(=O)NC4=O)cc3C(F)(F)F)CC2)CC1` (stereo not shown) [Compound 18] belongs less than 100 nM.

With `COc1cc(-c2cn(C)c(=O)c(C)c2C)cc(Cl)c1CN1CCC(F)(CCC2CCN(c3ccc(NC4CCC(=O)NC4=O)cc3F)CC2)CC1` (stereo not shown) [Compound 153], for the setting “Table 1”, the DC50 was less than 100 nM. Still for that read-out and setting: to `COc1cc(-c2cn(C)c(=O)c3[nH]ncc23)cc(F)c1CN1CCN(C(=O)CC2CCN(c3ccc(NC4CCC(=O)NC4=O)cc3)CC2)CC1` (stereo not shown) [Compound 49, 3-[4-[4-[2-[4-[[2-fluoro-6-methoxy-4-(6-methyl-7-oxo-1H-pyrazolo[3,4-c]pyridin-4-yl)phenyl]methyl]piperazin-1-yl]-2-oxo-ethyl]-1-piperidyl]anilino]piperidine-2,6-dione] belongs less than 100 nM; to `COc1cc(-c2cn(C)c(=O)c3[nH]ncc23)cc(OC)c1CN1CCC(NC(=O)CN2CCC(c3ccc(NC4CCC(=O)NC4=O)cc3)CC2)CC1` (stereo not shown) [Compound 6], less than 100 nM.

As for `COc1cc(-c2cn(C)c(=O)c3cnccc23)cc(OC)c1CN1CCN(C(=O)CC2CCN(c3ccc(NC4CCC(=O)NC4=O)cc3C(F)(F)F)CC2)CC1` (stereo not shown) [Compound 54], the DC50 (Table 1) is less than 100 nM.

Regarding `COc1cc(-c2cn(C)c(=O)c3ccccc23)cc(Cl)c1CN1CCC(N2CCN(c3ccc(NC4CCC(=O)NC4=O)cc3F)CC2)C(F)(F)C1` (stereo not shown) [Compound 192], the DC50 (Table 1) was less than 100 nM. `COc1cc(-c2cn(C)c(=O)c(C)c2C)cc(Cl)c1C(=O)N1CCC(C2CCN(c3ccc(NC4CCC(=O)NC4=O)cn3)CC2)CC1` (stereo not shown) [Compound 218, 3-[[6-[4-[1-[2-chloro-6-methoxy-4-(1,4,5-trimethyl-6-oxo-3-pyridyl)benzoyl]-4-piperidyl]-1-piperidyl]-3-pyridyl]amino]piperidine-2,6-dione]: under “Table 1”, the DC50 is less than 100 nM. Regarding `COc1cc(-c2cn(C)c(=O)c(C)c2C)cc(OC)c1CN1CCC(N2CCN(c3ccc(NC4CCC(=O)NC4=O)cc3Cl)CC2)C(F)(F)C1` (stereo not shown) [Compound 187], the half-maximal degradation concentration (DC50) (Table 1) was less than 100 nM. Take `COc1cc(-c2cn(C)c(=O)c3[nH]ncc23)cc(OC)c1CN1CCN(C(=O)Cc2ccc(NC3CCC(=O)NC3=O)cc2F)CC1` (stereo not shown) [Compound 41, 3-[4-[2-[4-[[2,6-dimethoxy-4-(6-methyl-7-oxo-1H-pyrazolo[3,4-c]pyridin-4-yl)phenyl]methyl]piperazin-1-yl]-2-oxo-ethyl]-3-fluoro-anilino]piperidine-2,6-dione]: the 50% degradation concentration (DC50) (Table 1) is less than 100 nM.

In the case of `C/C=C/Cn1cc(-c2cc(Cl)c(CN3CCC(N4CCN(c5ccc(NC6CCC(=O)NC6=O)cc5F)CC4)C(F)(F)C3)c(OC)c2)c2ccncc2c1=O` (stereo not shown) [Compound 266], under “Table 2”, the DC50 is less than 100 nM. As for `COc1cc(-c2cn(C)c(=O)c3[nH]ncc23)cc(F)c1CN1CCN(C(=O)NC2CCN(c3ccc(NC4CCC(=O)NC4=O)cc3)CC2)CC1` (stereo not shown) [Compound 145, N-[1-[4-[(2,6-dioxo-3-piperidyl)amino]phenyl]-4-piperidyl]-4-[[2-fluoro-6-methoxy-4-(6-methyl-7-oxo-1H-pyrazolo[3,4-c]pyridin-4-yl)phenyl]methyl]piperazine-1-carboxamide], the half-maximal degradation concentration (DC50) (Table 1) is less than 100 nM.

(Values after patent US11691972B2, “Compounds for targeted degradation of BRD9” (C4 Therapeutics, Inc., priority 2020, dated 2023).)
